Assay results published in publication PMC7156724, “Potent BRD4 inhibitor suppresses cancer cell-macrophage interaction” (Nature Communications, 2020).
Several values for one entry are separate records, joined by “and”; a condition that tells them apart may be missing. Equal entries are not always repeated.

What was measured:
[1] = Metabolic stability assay, dog liver microsomes; details: in % (unit assumed)
Protocol: (§1) 7. Metabolic stability assay. The metabolic profile of NHWD-870 was determined using mouse, rat, dog, monkey, and human liver microsomes using the protocols […]
(§2) No. Compound ID Exat Mass Stock Conc.
(§3) 1) 100 mM potassium phosphate buffer, PH7.4; 2) 10mM MgCI2
(§4) 1) Intermediate solution: Dilute 5 μL of compound or control from stock solution (10 mM) with 45 uL DMSO,then mixed with 450 μL 1:1 Methanol/Water (Conc.: 10 0 […]
(§5) 2) Working solution: Dilute 50 μL from intermediate solution with 450 μL 100 mM potassium phosphate buffer (Conc.: 10 μM, 4.5%MeOH)
(§6) (3) NADPH regenerating system (final Isocitric dehydrogenase conc.= 1 unit/mL at […]
(§7) 1) β-Nicotinamide adenine dinucleotide phosphate, Vendor: sigma Cat. No. N0505
(§8) 2) Isocitric acid, Vendor: Sigma Cat. No. I1252
(§9) 3) Isocitric dehydrogenase, Vendor: sigma Cat. No. I2002
(§10) (4) Liver microsome solution preparation (final concentration o f 0.5 mg protein/mL) […]
(§11) Cold ACN including 100 ng/mL Tolbutamide and 100 ng/mL Labetalol as internal […]
(§12) 1) Add 10 μL compound or control working solution/well to all plates (T0, T5, T10, T20, T30, T60, NCF60) except matrix blank.
(§13) 2) Dispense 680 μL/well microsome solution to 96-well plate as reserv oir according to […]
(§14) plate map. Then add 80 μL/well to every plate by Apricot, incubate the mixture of microsome solution and compound at 37℃ for about 10 min.
(§15) 3) Add 10 μL 100 mM potassium phosphate buffer/well to NCF60, incubate at 37℃, […]
(§16) 4) After pre-warming, dispense 90 μL/well NADPH regenerating system to 96-well plate as reservoir according to the plate map. Then add 10 μL/well to every plate by Apricot to start reaction.
(§17) 5) Incubate at 37℃, start timer 2.
(§18) 6) Add 300 (μL/well) stop solution (cold in 4℃, including 100 ng/mL Tolbutamide and 100 ng/mL Labetalol) to terminate the reaction.
(§19) 7) The sampling plates are shaked for approx 10 min.
(§20) 8) Samples are centrifuged at 4000 rpm for 20 min under 4℃.
(§21) 9) While centrifuging, load 8×new 96-well plate with 300 μL HPLC water, then transfer 100 μL supernatant, mixed for LC/MS/MS.
(§22) Use equation of first order kinetics to calculate t1/2 and Clin t(mic): […]
(§23) Equation of first order kinetics: […]

[2] = Metabolic stability assay, monkey liver microsomes; details: in % (unit assumed)
Protocol: as §1, §2, §3, §4, §5, §6, §7, §8, §9, §10, §11, §12, §13, §14, §15, §16, §17, §18, §19, §20, §21, §22, §23

[3] = Metabolic stability assay, mouse liver microsomes; details: in % (unit assumed)
Protocol: as §1, §2, §3, §4, §5, §6, §7, §8, §9, §10, §11, §12, §13, §14, §15, §16, §17, §18, §19, §20, §21, §22, §23

[4] = Metabolic stability assay, human liver microsomes; details: in % (unit assumed)
Protocol: as §1, §2, §3, §4, §5, §6, §7, §8, §9, §10, §11, §12, §13, §14, §15, §16, §17, §18, §19, §20, §21, §22, §23

[5] = Metabolic stability assay, rat liver microsomes; details: in % (unit assumed)
Protocol: as §1, §2, §3, §4, §5, §6, §7, §8, §9, §10, §11, §12, §13, §14, §15, §16, §17, §18, §19, §20, §21, §22, §23

B16F10 mouse melanoma = B16F10 mouse melanoma syngeneic model tumor growth; assay type: in vivo, C57BL/6 mice; set-up: Tumor volume: unit not given here; details: Fig.3d, individual animals
Text: (§24) PO, oral administration; QD, once daily; BID, twice daily. b–d Tumor growth curves for A2780 ovarian tumor (n = 5) (b), TMD8 large B cell lymphoma (n = 6) (c), and B16F10 melanoma (n = 5) (d) bearing mice treated with the indicated compounds once daily for 11-21 days. e, f Tumor growth curves for A375 melanoma (n = 6) (e), and patient-derived xenograft (PDX) of melanoma (n = 5) (f) bearing mice treated with the indicated compounds once daily (5 days on, 2 days off) for 21 days. For d–f, NHWD-870 used is NHWD-870-HCl synthesized using Suzuki coupling route. Data are presented as mean ± SEM in (a, b, d, f) and mean + SEM in (c, e). p values were calculated using two-tailed, unpaired t tests. *p < 0.05; **p < 0.01; ***p < 0.001. Source data are provided as a Source Data file.
(§25) 4–6 weeks old female BALB/c nude mice were used for most experiments, with the exception of 6–8 weeks old female C57BL/6 mice were used for B16F10 experiments, and 6–8 weeks old male BALB/c nude mice and SD rats were used for pharmacokinetic experiments. All animals were purchased from Shanghai SIPPR-Bk Lab Animal Co., Ltd. All animals were housed under a regimen of 12 h light/12 h dark cycles and specific pathogen-free conditions. 5×10^6 NCI-H526, ES-2, MDA-MB231, A2780, A375, B16F10, and TMD-8 cells (0.1 ml) were injected subcutaneously into female nude mice. The melanoma patient-derived xenograft model was derived from a human melanoma sample (BRAF, NARS and NF1 wild type, and p53 mutant) removed from a patient in Xiangya Hospital. Surgically removed tumor fragments were implanted subcutaneously into female NSG mice. When the tumors grew to ~1000 mm^3, they were harvested and cryopreserved or immediately re-implanted for expansion or experiments. Mouse body weight and tumor sizes were measured every 3 days. Once the tumors grew to 150–200 mm^3, mice were treated with the compounds as described in the Figures. 1 × 10^6 A2780 cells (1 ml) were injected into the abdominal cavity of nude mice. Ascitic volume and tumor weight were measured by an electronic balance. All the procedures were evaluated and approved by the Institutional Animal Care and Use Committee of Central South University and Yale University.

[6] = test system: TMD8 large B cell lymphoma; assay: TMD8 large B cell lymphoma model tumor growth; assay type: in vivo, mouse; details: Fig.3c TMD-8, 25mg/kg p.o. QD x 21D, n=6, individual animals
Text: as §24, §25

Compound: O=C(O)Cc1ccccc1Nc1c(Cl)cccc1Cl [Diclofenac]
- Remaining in Dog liver microsomes (Sup Fig.6c) ([1]; time 0): 100
- Remaining in Dog liver microsomes (Sup Fig.6c) ([1]; time 5): 94.367
- Remaining in Dog liver microsomes (Sup Fig.6c) ([1]; time 10): 98.224
- Remaining in Dog liver microsomes (Sup Fig.6c) ([1]; time 20): 89.21
- Remaining in Dog liver microsomes (Sup Fig.6c) ([1]; time 30): 87.634
- Remaining in Dog liver microsomes (Sup Fig.6c) ([1]; time 60): 78.588
- Remaining in Monkey liver microsomes (Sup Fig.6d) ([2]; time 0): 100
- Remaining in Monkey liver microsomes (Sup Fig.6d) ([2]; time 5): 88.217
- Remaining in Monkey liver microsomes (Sup Fig.6d) ([2]; time 10): 88.366
- Remaining in Monkey liver microsomes (Sup Fig.6d) ([2]; time 20): 94.477
- Remaining in Monkey liver microsomes (Sup Fig.6d) ([2]; time 30): 85.252
- Remaining in Monkey liver microsomes (Sup Fig.6d) ([2]; time 60): 84.048
- Remaining in mouse liver microsomes (Sup Fig.6a) ([3]; time 0): 100
- Remaining in mouse liver microsomes (Sup Fig.6a) ([3]; time 5): 92.277
- Remaining in mouse liver microsomes (Sup Fig.6a) ([3]; time 10): 89.557
- Remaining in mouse liver microsomes (Sup Fig.6a) ([3]; time 20): 85.421
- Remaining in mouse liver microsomes (Sup Fig.6a) ([3]; time 30): 78.177
- Remaining in mouse liver microsomes (Sup Fig.6a) ([3]; time 60): 51.477
- Remaining in Human liver microsomes (Sup Fig.6e) ([4]; time 0): 100
- Remaining in Human liver microsomes (Sup Fig.6e) ([4]; time 5): 68.568
- Remaining in Human liver microsomes (Sup Fig.6e) ([4]; time 10): 50.449
- Remaining in Human liver microsomes (Sup Fig.6e) ([4]; time 20): 28.02
- Remaining in Human liver microsomes (Sup Fig.6e) ([4]; time 30): 16.826
- Remaining in Human liver microsomes (Sup Fig.6e) ([4]; time 60): 2.933
- Remaining in rat liver microsomes (Sup Fig.6b) ([5]; time 0): 100
- Remaining in rat liver microsomes (Sup Fig.6b) ([5]; time 5): 75.339
- Remaining in rat liver microsomes (Sup Fig.6b) ([5]; time 10): 59.077
- Remaining in rat liver microsomes (Sup Fig.6b) ([5]; time 20): 35.911
- Remaining in rat liver microsomes (Sup Fig.6b) ([5]; time 30): 22.814
- Remaining in rat liver microsomes (Sup Fig.6b) ([5]; time 60): 4.586

Compound: C[C@]12CC[C@H]3[C@@H](CCC4=CC(=O)CC[C@@]43C)[C@@H]1CC[C@@H]2O [Testosterone]
- Remaining in Dog liver microsomes (Sup Fig.6c) ([1]; time 0): 100
- Remaining in Dog liver microsomes (Sup Fig.6c) ([1]; time 5): 51.913
- Remaining in Dog liver microsomes (Sup Fig.6c) ([1]; time 10): 27.194
- Remaining in Dog liver microsomes (Sup Fig.6c) ([1]; time 20): 14.015
- Remaining in Dog liver microsomes (Sup Fig.6c) ([1]; time 30): 6.615
- Remaining in Dog liver microsomes (Sup Fig.6c) ([1]; time 60): 0
- Remaining in Monkey liver microsomes (Sup Fig.6d) ([2]; time 0): 100
- Remaining in Monkey liver microsomes (Sup Fig.6d) ([2]; time 5): 72.293
- Remaining in Monkey liver microsomes (Sup Fig.6d) ([2]; time 10): 57.852
- Remaining in Monkey liver microsomes (Sup Fig.6d) ([2]; time 20): 51.22
- Remaining in Monkey liver microsomes (Sup Fig.6d) ([2]; time 30): 37.184
- Remaining in Monkey liver microsomes (Sup Fig.6d) ([2]; time 60): 14.336
- Remaining in Human liver microsomes (Sup Fig.6e) ([4]; time 0): 100
- Remaining in Human liver microsomes (Sup Fig.6e) ([4]; time 5): 82.349
- Remaining in Human liver microsomes (Sup Fig.6e) ([4]; time 10): 75.006
- Remaining in Human liver microsomes (Sup Fig.6e) ([4]; time 20): 64.528
- Remaining in Human liver microsomes (Sup Fig.6e) ([4]; time 30): 50.522
- Remaining in Human liver microsomes (Sup Fig.6e) ([4]; time 60): 21.403
- Remaining in rat liver microsomes (Sup Fig.6b) ([5]; time 0): 100
- Remaining in rat liver microsomes (Sup Fig.6b) ([5]; time 5): 0.549
- Remaining in rat liver microsomes (Sup Fig.6b) ([5]; time 10): 0
- Remaining in rat liver microsomes (Sup Fig.6b) ([5]; time 20): 0
- Remaining in rat liver microsomes (Sup Fig.6b) ([5]; time 30): 0
- Remaining in rat liver microsomes (Sup Fig.6b) ([5]; time 60): 0

Compound: Cc1nnn(C)c1-c1cnc2c3c4cnn(C)c4ccc3n([C@H](c3ccccc3)C3CCOCC3)c2c1 [compound 870]
- Tumor volume (B16F10 mouse melanoma; 1mg/kg, day 0): 0
- Tumor volume (B16F10 mouse melanoma; 1mg/kg, day 3): 56 and 75 and 36 and 4 and 137
- Tumor volume (B16F10 mouse melanoma; 1mg/kg, day 7): 88 and 81 and 51 and 56 and 405
- Tumor volume (B16F10 mouse melanoma; 1mg/kg, day 11): 198 and 63 and 191 and 162 and 405
- Tumor volume (B16F10 mouse melanoma; 2mg/kg, day 0): 0
- Tumor volume (B16F10 mouse melanoma; 2mg/kg, day 3): 14 and 36 and 172 and 3.5 and 2.5
- Tumor volume (B16F10 mouse melanoma; 2mg/kg, day 7): 40 and 75 and 288 and 2.1 and 2.5
- Tumor volume (B16F10 mouse melanoma; 2mg/kg, day 11): 0 and 237 and 500 and 2.5 and 1.6

Compound: C=CC(=O)N1CCC[C@@H](n2nc(-c3ccc(Oc4ccccc4)cc3)c3c(N)ncnc32)C1 [Ibrutinib, reference compound]
- Tumor volume ([6]; day 0): 154.352 mm^3 and 126.234 mm^3 and 92.4707 mm^3 and 208.237 mm^3 and 189.187 mm^3 and 112.682 mm^3
- Tumor volume ([6]; day 3): 237.85 mm^3 and 276.464 mm^3 and 91.3933 mm^3 and 282.765 mm^3 and 163.343 mm^3 and 107.8 mm^3
- Tumor volume ([6]; day 7): 352.832 mm^3 and 423.619 mm^3 and 205.187 mm^3 and 365.185 mm^3 and 345.367 mm^3 and 135.53 mm^3
- Tumor volume ([6]; day 10): 473.704 mm^3 and 751.605 mm^3 and 389.433 mm^3 and 510.345 mm^3 and 486.864 mm^3 and 230.549 mm^3
- Tumor volume ([6]; day 14): 835.097 mm^3 and 1026.1 mm^3 and 435.155 mm^3 and 707.68 mm^3 and 720.134 mm^3 and 302.373 mm^3
- Tumor volume ([6]; day 17): 1017.47 mm^3 and 1815.12 mm^3 and 476.012 mm^3 and 822.388 mm^3 and 594.62 mm^3 and 293.12 mm^3
- Tumor volume ([6]; day 21): 1538.44 mm^3 and 2230.02 mm^3 and 727.616 mm^3 and 1254.35 mm^3 and 985.284 mm^3 and 887.285 mm^3
